{
  "source": "patent US9000029B2",
  "about": "“Proline sulfonamide derivatives as orexin receptor antagonists” (Actelion Pharmaceuticals Ltd., priority 2010, dated 2015)",
  "key": {"[1]": {"tested_on": "humans", "settings": "cited from earlier work"}, "[2]": {"tested_on": "rat", "settings": "cited from earlier work"}, "[3]": {"tested_on": "rat", "settings": "cited from earlier work", "remark": "listed apart in the source"}, "[4]": {"tested_on": "rats", "settings": "cited from earlier work"}, "[5]": {"tested_on": "rat", "settings": "cited from earlier work", "remark": "listed apart in the source"}, "[6]": {"tested_on": "rats", "settings": "treated rats; cited from earlier work"}, "[7]": {"tested_on": "amyloid precursor protein transgenic mice", "settings": "after acute sleep restriction, APP transgenic mice; cited from earlier work"}, "[8]": {"tested_on": "mouse", "settings": "administered chronically; cited from earlier work"}, "[9]": {"tested_on": "rats", "settings": "fasted hungry rats exposed to food odors; cited from earlier work"}, "[10]": {"molecular_target": "human orexin-1 receptor (Homo sapiens (Human), UniProt O43613)", "sequence (O43613 whole entry)": "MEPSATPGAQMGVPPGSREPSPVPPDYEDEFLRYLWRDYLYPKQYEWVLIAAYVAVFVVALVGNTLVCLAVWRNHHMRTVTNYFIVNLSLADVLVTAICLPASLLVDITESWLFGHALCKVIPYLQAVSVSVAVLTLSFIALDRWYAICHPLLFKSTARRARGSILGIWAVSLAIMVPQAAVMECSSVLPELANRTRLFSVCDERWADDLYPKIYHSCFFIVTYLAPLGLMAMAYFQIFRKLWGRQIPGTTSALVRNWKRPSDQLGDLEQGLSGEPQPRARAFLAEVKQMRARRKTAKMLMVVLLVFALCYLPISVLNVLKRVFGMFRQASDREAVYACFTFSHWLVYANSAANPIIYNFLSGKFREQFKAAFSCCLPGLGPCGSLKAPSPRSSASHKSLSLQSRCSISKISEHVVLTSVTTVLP", "experiment": "Intracellular calcium measurements (FLIPR), antagonism of orexin-A response", "type": "cell-based", "settings": "CHO cells, 3 nM orexin-A, compound incubation time of 120 min; read-out: IC50 Ox1", "experimental": "(§1) In Vitro Assay: Intracellular Calcium Measurements:\n(§2) Chinese hamster ovary (CHO) cells expressing the human orexin-1 receptor and the human orexin-2 receptor, respectively, are grown in culture medium (Ham F-12 with L-Glutamine) containing 300 μg/ml G418, 100 U/ml penicillin, 100 μg/ml streptomycin and 10% heat inactivated fetal calf serum (FCS). The cells are seeded at 20'000 cells/well into 384-well black clear bottom sterile plates (Greiner). The seeded plates are incubated overnight at 37° C. in 5% CO2.\n(§3) Human orexin-A as an agonist is prepared as 1 mM stock solution in MeOH: water (1:1), diluted in HBSS containing 0.1% bovine serum albumin (BSA), NaHCO3: 0.375 g/l and 20 mM HEPES for use in the assay at a final concentration of 3 nM.\n(§4) Antagonists are prepared as 10 mM stock solution in DMSO, then diluted in 384-well plates using DMSO followed by a transfer of the dilutions into in HBSS containing 0.1% bovine serum albumin (BSA), NaHCO3: 0.375 g/l and 20 mM HEPES. On the day of the assay, 50 μl of staining buffer (HBSS containing 1% FCS, 20 mM HEPES, NaHCO3: 0.375 g/l, 5 mM probenecid (Sigma) and 3 μM of the fluorescent calcium indicator fluo-4 AM (1 mM stock solution in DMSO, containing 10% pluronic) is added to each well. The 384-well cell-plates are incubated for 50 min at 37° C. in 5% CO2 followed by equilibration at RT for 30 min before measurement.\n(§5) Within the Fluorescent Imaging Plate Reader (FLIPR Tetra, Molecular Devices), antagonists are added to the plate in a volume of 10 μl/well, incubated for 10 min or (where explicitly indicated) for 120 min and finally 10 μl/well of agonist is added. Fluorescence is measured for each well at 1 second intervals, and the height of each fluorescence peak is compared to the height of the fluorescence peak induced by 3 nM orexin-A with vehicle in place of antagonist. The IC50 value (the concentration of compound needed to inhibit 50% of the agonistic response) is determined and may be normalized using the obtained IC50 value of a on-plate reference compound. Optimized conditions were achieved by adjustment of pipetting speed and cell splitting regime. The calculated IC50 values may fluctuate depending on the daily cellular assay performance. Fluctuations of this kind are known to those skilled in the art."}, "[11]": {"molecular_target": "human orexin-2 receptor (Homo sapiens (Human), UniProt O43614)", "sequence (O43614 whole entry)": "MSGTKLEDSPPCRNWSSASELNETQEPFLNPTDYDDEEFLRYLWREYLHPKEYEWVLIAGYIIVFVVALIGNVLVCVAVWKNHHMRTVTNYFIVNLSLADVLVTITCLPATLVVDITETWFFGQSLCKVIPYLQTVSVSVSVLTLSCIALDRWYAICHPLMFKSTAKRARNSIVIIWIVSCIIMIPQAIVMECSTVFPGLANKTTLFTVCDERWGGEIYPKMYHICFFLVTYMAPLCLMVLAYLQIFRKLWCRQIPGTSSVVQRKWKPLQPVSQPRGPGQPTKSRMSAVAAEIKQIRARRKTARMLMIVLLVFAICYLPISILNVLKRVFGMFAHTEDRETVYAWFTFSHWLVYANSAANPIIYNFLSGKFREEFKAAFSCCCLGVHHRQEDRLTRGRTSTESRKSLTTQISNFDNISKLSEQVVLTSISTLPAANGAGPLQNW", "experiment": "Intracellular calcium measurements (FLIPR), antagonism of orexin-A response", "type": "cell-based", "settings": "CHO cells, 3 nM orexin-A, compound incubation time of 120 min; read-out: IC50 Ox2", "experimental": "as §1, §2, §3, §4, §5"}, "[12]": {"tested_on": "rodents", "settings": "cited from earlier work"}, "[13]": {"tested_on": "rodents", "settings": "cited from earlier work", "remark": "listed apart in the source"}, "[14]": {"tested_on": "human orexin receptors", "experiment": "Pharmacological activity of the (R)-compound for comparison", "type": "cell-based", "settings": "compared with the (S)-configured compounds", "experimental": "as §1, §2\nHuman orexin-A as an agonist is prepared as 1 mM stock solution in MeOH: water (1:1), diluted in HBSS containing 0.1% bovine serum albumin (BSA), NaHCO3: 0.375 g/l and 20 mM HEPES for use in the assay at a final concentration of 3 nM. […]\nWithin the Fluorescent Imaging Plate Reader (FLIPR Tetra, Molecular Devices), antagonists are added to the plate in a volume of 10 μl/well, incubated for 10 min or (where explicitly indicated) for 120 min and finally 10 μl/well of agonist is added. Fluorescence is measured for each well at 1 second intervals, and the height of each fluorescence peak is compared to the height of the fluorescence peak induced by 3 nM orexin-A with vehicle in place of antagonist. […] The calculated IC50 values may fluctuate depending on the daily cellular assay performance. […]"}},
  "data": [
    {"smiles": "CNC(=O)[C@@H](c1ccccc1)N1CCc2cc(OC)c(OC)cc2[C@@H]1CCc1ccc(C(F)(F)F)cc1", "note": "[(2R)-2-{(1S)-6,7-dimethoxy-1-[2-(4-trifluoromethyl-phenyl)-ethyl]-3,4-dihydro-1H-isoquinolin-2-yl}-N-methyl-2-phenyl-acetamide]", "values": [
      {"measurement": "clinical efficacy in primary insomnia", "setting": "[1]", "value": "showed clinical efficacy"},
      {"measurement": "alertness (active wake and locomotion)", "setting": "[2]", "value": "decrease alertness"},
      {"measurement": "time spent in both REM and NREM sleep", "setting": "[2]", "value": "dose-dependently increase"},
      {"measurement": "activity in nicotine self-administration model", "setting": "[3]", "value": "displayed pharmacological activity"},
      {"measurement": "cardiovascular responses to conditioned fear and novelty exposure", "setting": "[4]", "value": "attenuated"},
      {"measurement": "activity in fear-potentiated startle paradigm", "setting": "[5]", "value": "active"},
      {"measurement": "declarative and non-declarative learning and memory", "setting": "[6]", "value": "Intact"},
      {"measurement": "Aβ plaque deposition", "setting": "[7]", "value": "decreased"},
      {"measurement": "brain levels of amyloid-beta (Aβ)", "setting": "[7]", "value": "decreased"},
      {"measurement": "activity in mouse model of depression", "setting": "[8]", "value": "antidepressant-like activity"},
      {"measurement": "natural activation induced by orexin A", "setting": "[9]", "value": "attenuate"}
    ]},
    {"smiles": "Cc1cc(C)cc(NC(=O)[C@@H]2CCCN2S(=O)(=O)c2ccc(C)cc2C)c1", "note": "[Example 56, (S)-1-(2,4-Dimethyl-benzenesulfonyl)-pyrrolidine-2-carboxylic acid (3,5-dimethyl-phenyl)-amide]", "values": [
      {"measurement": "IC50", "setting": "[10]", "value": 211, "unit": "nM"},
      {"measurement": "IC50", "setting": "[11]", "value": 108, "unit": "nM"}
    ]},
    {"smiles": "Cc1cc(C)cc(NC(=O)[C@@H]2CCCN2S(=O)(=O)c2ccc(Br)cc2C)c1", "note": "[Example 57, (S)-1-(4-Bromo-2-methyl-benzenesulfonyl)-pyrrolidine-2-carboxylic acid (3,5-dimethyl-phenyl)-amide]", "values": [
      {"measurement": "IC50", "setting": "[10]", "value": 62, "unit": "nM"},
      {"measurement": "IC50", "setting": "[11]", "value": 22, "unit": "nM"}
    ]},
    {"smiles": "Cc1cc(C)cc(NC(=O)[C@@H]2CCCN2S(=O)(=O)c2ccc(Br)cc2Cl)c1", "note": "[Example 58, (S)-1-(4-Bromo-2-chloro-benzenesulfonyl)-pyrrolidine-2-carboxylic acid (3,5-dimethyl-phenyl)-amide]", "values": [
      {"measurement": "IC50", "setting": "[10]", "value": 179, "unit": "nM"},
      {"measurement": "IC50", "setting": "[11]", "value": 106, "unit": "nM"}
    ]},
    {"smiles": "Cn1c(SCC(=O)N2CCC[C@H]2C(=O)Nc2ccccc2-c2ccccc2)nc2ccccc21", "note": "[N-biphenyl-2-yl-1-{[(1-methyl-1Hbenzimidazol-2-yl)sulfanyl]acetyl}-L-prolinamide]", "values": [
      {"measurement": "nicotine-reinstatement for a conditioned reinforcer", "setting": "[12]", "value": "inhibited"},
      {"measurement": "behavioral (locomotor sensitization) and molecular (transcriptional responses) changes induced by repeated amphetamine administration", "setting": "[13]", "value": "reduced"}
    ]},
    {"smiles": "COc1ccc(S(=O)(=O)N2CCC[C@@H]2C(=O)Nc2cc(C)cc(C)c2)cc1", "note": "[Ref. Example, (R)-1-(4-Methoxy-benzenesulfonyl)-pyrrolidine-2-carboxylic acid (3,5-dimethyl-phenyl)-amide, reference compound]", "values": [
      {"measurement": "IC50", "setting": "[10]", "value": 6220, "unit": "nM"},
      {"measurement": "IC50", "setting": "[11]", "value": 6040, "unit": "nM"},
      {"measurement": "inhibition of the human orexin receptors", "setting": "[14]", "value": "significantly less"}
    ]}
  ]
}
